In PubChem BioAssay AID1963420 (Molecular Pharmacology Branch, DTP, NCI, 2024):
pIC50: −log10 of the molar value.

Test system: 494315-158-R-J1-PDC complex spheroid growth, percent test/control
Test: Anticancer human tumor 494315-158-R-J1-PDC patient-derived soft tissue sarcoma cell line growth inhibition [Asc]
Conditions: for pIC50: curve of first compound; for viability, T/C: stronger effect = lower value
Procedure, shortened: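 Complex spheroids combining tumor cells with HUVEC endothelial cells and human MSCs, at 37 degrees C, 5% CO2; agents tested alone or combined, half-log dilutions from at or near clinical Cmax, or 10 microM if Cmax unknown.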
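Further: compound exposure lasted seven days after spheroids formed for three days.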

Question: How did the pIC50 (second compound 0.03 µM) turn out when `NC(=O)C(=Cn1cnc(-c2cc(C(F)(F)F)cc(C(F)(F)F)c2)n1)c1cncnc1` + CCN1C(C(=O)NC23CCC(C(=O)O)(CC2)CC3)C(c2cccc(Cl)c2F)C2(C(=O)Nc3cc(Cl)ccc32)C12CCCCC2 was run?
Answer: The pIC50 was 7.14.

Question: What about the pIC50 (second compound 0.0949 µM) of the same compound?
Answer: Its pIC50 is 7.28.

Question: And the pIC50 (second compound 0.3 µM)?
Answer: The pIC50 was 7.16.

Question: What about the pIC50 (second compound 0.949 µM) of the same compound?
Answer: The pIC50 was 7.13.

Question: And the pIC50 (second compound 3 µM)?
Answer: The pIC50 was 7.10.

Question: And the viability, T/C (second compound 0.03 µM, first compound 0.000949 µM)?
Answer: The viability, T/C was 97%.

Question: What about the viability, T/C (second compound 0.03 µM, first compound 0.003 µM) of the same compound?
Answer: The viability, T/C was 107%.

Question: What about the viability, T/C (second compound 0.03 µM, first compound 0.00949 µM) of the same compound?
Answer: The viability, T/C was 84.9%.

Question: What about the viability, T/C (second compound 0.03 µM, first compound 0.03 µM) of the same compound?
Answer: Its viability, T/C is 78.3%.

Question: And the viability, T/C (second compound 0.03 µM, first compound 0.0949 µM)?
Answer: The viability, T/C was 41%.

Question: What about the viability, T/C (second compound 0.03 µM, first compound 0.3 µM) of the same compound?
Answer: Its viability, T/C is 17.4%.

Question: What about the viability, T/C (second compound 0.0949 µM, first compound 0.000949 µM) of the same compound?
Answer: The viability, T/C was 96.6%.

Question: What about the viability, T/C (second compound 0.0949 µM, first compound 0.003 µM) of the same compound?
Answer: The viability, T/C was 96.4%.

Question: What about the viability, T/C (second compound 0.0949 µM, first compound 0.00949 µM) of the same compound?
Answer: Its viability, T/C is 81.6%.

Question: And the viability, T/C (second compound 0.0949 µM, first compound 0.03 µM)?
Answer: Its viability, T/C is 64.4%.

Question: And the viability, T/C (second compound 0.0949 µM, first compound 0.0949 µM)?
Answer: Its viability, T/C is 35.5%.

Question: What about the viability, T/C (second compound 0.0949 µM, first compound 0.3 µM) of the same compound?
Answer: The viability, T/C was 16.8%.

Question: What about the viability, T/C (second compound 0.3 µM, first compound 0.000949 µM) of the same compound?
Answer: Its viability, T/C is 96.6%.

Question: And the viability, T/C (second compound 0.3 µM, first compound 0.003 µM)?
Answer: Its viability, T/C is 88%.

Question: And the viability, T/C (second compound 0.3 µM, first compound 0.00949 µM)?
Answer: Its viability, T/C is 97.6%.

Question: And the viability, T/C (second compound 0.3 µM, first compound 0.03 µM)?
Answer: The viability, T/C was 74.8%.

Question: What about the viability, T/C (second compound 0.3 µM, first compound 0.0949 µM) of the same compound?
Answer: The viability, T/C was 40.4%.

Question: What about the viability, T/C (second compound 0.3 µM, first compound 0.3 µM) of the same compound?
Answer: Its viability, T/C is 17.5%.

Question: What about the viability, T/C (second compound 0.949 µM, first compound 0.000949 µM) of the same compound?
Answer: Its viability, T/C is 98.2%.

Question: What about the viability, T/C (second compound 0.949 µM, first compound 0.003 µM) of the same compound?
Answer: Its viability, T/C is 89.3%.

Question: And the viability, T/C (second compound 0.949 µM, first compound 0.00949 µM)?
Answer: Its viability, T/C is 80.6%.

Question: And the viability, T/C (second compound 0.949 µM, first compound 0.03 µM)?
Answer: The viability, T/C was 70.8%.

Question: And the viability, T/C (second compound 0.949 µM, first compound 0.0949 µM)?
Answer: Its viability, T/C is 43.4%.

Question: What about the viability, T/C (second compound 0.949 µM, first compound 0.3 µM) of the same compound?
Answer: Its viability, T/C is 19.1%.

Question: What about the viability, T/C (second compound 3 µM, first compound 0.000949 µM) of the same compound?
Answer: Its viability, T/C is 102%.

Question: What about the viability, T/C (second compound 3 µM, first compound 0.003 µM) of the same compound?
Answer: The viability, T/C was 103%.

Question: What about the viability, T/C (second compound 3 µM, first compound 0.00949 µM) of the same compound?
Answer: The viability, T/C was 95.6%.

Question: And the viability, T/C (second compound 3 µM, first compound 0.03 µM)?
Answer: The viability, T/C was 81%.

Question: What about the viability, T/C (second compound 3 µM, first compound 0.0949 µM) of the same compound?
Answer: The viability, T/C was 44%.

Question: What about the viability, T/C (second compound 3 µM, first compound 0.3 µM) of the same compound?
Answer: The viability, T/C was 13.6%.
